The text below walks through data of a melting point compilation (Tetko et al.; mined from patent text by program, amines drawn as free bases though some values may be those of a salt).

The structures appear in SMILES notation.

One may read the melting point as the temperature, or range, at which the solid turns liquid. `CN1c2ccccc2CC1c1ccccc1NC(=O)C(C)(C)C` (stereo not drawn) gave a melting point of 133 to 135 °C.
`COc1ncc(-c2ccccc2)c(C(=O)N(C)Cc2cc(C(F)(F)F)cc(C(F)(F)F)c2)n1` yielded a melting point of 97.5 to 98.5 °C.
Compound `COc1cccc2c1CCC21NC(=O)c2ccccc21` (stereo not drawn) registered a melting point of 222 to 224 °C.
To `Nc1ccccc1CCc1n[nH]c2c1c(=O)n(-c1ccccc1)c1ncccc21` belongs 289 to 291 °C; to `CCCCCCCCCCCCCCCCCCOc1ccc(OCCCc2ccccc2)c(C(=O)N(CC(=O)O)CC(=O)O)c1`, 101 to 102 °C.
Turning to `O=C(c1c[nH]c2ccc(Br)cc12)[C@H]1CCCN1C(=O)OCc1ccccc1`, the melting point is 95 to 96 °C.
Compound `COc1ccc2c(N(C)CCN3CCOCC3)noc2c1` showed a melting point of 43 to 44 °C.
`CC(=O)c1ccc(Nc2c3ccccc3nc3occ(Cl)c23)cc1` showed a melting point of 174 to 176 °C.
To `Cc1cc(C)c(N)nn1` belongs 123 to 126 °C; to `CCCCOC(=O)COc1cc(F)ccc1C(=O)NCc1cccc([N+](=O)[O-])c1`, 80 to 81 °C; to `O=c1oc(-c2ccccc2)cc(O)c1C(SC1CCCCC1)c1ccccc1` (stereo not drawn), 189 to 191 °C.
The compound `COc1ccc(CCCN(CCCc2ccc(OC)c(OC)c2)C(=O)N(C)O)cc1OC` displayed a melting point of 93 to 94 °C.
To `CC(=O)OCCc1ccc2c(c1)C(=O)c1ccccc1CO2` belongs 55 to 58 °C; to `O=C1C=C(O)C(=O)c2cc(F)ccc21`, 206 to 210 °C; to `Cn1ncnc1COc1nn2c(-c3ccccc3F)nncc2c1-c1c(F)cccc1F`, 196 °C.
`COc1ccc2c(c1)C(CCCN1C(=O)c3ccccc3C1=O)=CCO2` showed a melting point of 78 to 80 °C.
In turn, `COc1ccc(C=NC2CCN(c3cc4c(cc3F)c(=O)c(C(=O)O)cn4-c3ccc(F)cc3)C2)cc1` (stereo not drawn) returned a melting point of 270 to 271 °C.
The compound `Cc1csc(N2N=C(c3ccc([N+](=O)[O-])cc3)c3cc4c(cc3CC2C)OCO4)n1` (stereo not drawn) returned a melting point of 188 to 189 °C.
To `COc1ccc(CNc2nc(N3CCC(C(=O)O)CC3)nc3sc(Cl)cc23)cc1Cl` belongs over 250 °C; to `C[C@@H](Nc1c(-c2c(F)cc(F)cc2F)c(Cl)nc2ncnn12)C(C)(C)C`, 169 to 171 °C; to `O=C(Cc1ccccc1Nc1c(Cl)cccc1Cl)OCc1ccccn1`, 80 to 81 °C.
To `Cc1ccc(-n2c(-c3sc(Nc4ccccc4)nc3C)nc3ccccc3c2=O)cc1` belongs 256 to 257 °C; to `C[C@H]1[C@@H](CO)CCN1c1ccc(C#N)c2ccccc12`, 158 to 159 °C.
To `CN(C)Cc1cccc(OCCCNc2nc(-c3ccccc3)n[nH]2)c1` belongs 126 to 128 °C; to `COC(=O)c1cncn1C1c2ccccc2CCC1(C)C` (stereo not drawn), 66 to 67.5 °C.
Compound `C#CCNC(=O)c1c(I)cccc1[Si](C)(C)C` gave a melting point of 109 to 111 °C.
With `Cc1ccc(S(=O)(=O)N2C(C3=NOC(C)N3)CCC2c2ccc(F)cc2)cc1` (stereo not drawn), the melting point is 68 °C.
Take `CC(=O)OCC1OC(Oc2ccc(N)cc2)C(OC(C)=O)C(OC(C)=O)C1OC(C)=O` (stereo not drawn): the melting point is 130 to 133 °C.
For `Nc1ncc(-c2cccc(OCc3ccccc3)c2)cc1C(=O)NC1CC1`, the melting point lay within 177 to 178 °C.
To `O=C(NCc1ccccn1)OC1Cc2ccccc2N(S(=O)(=O)c2ccc(Cl)cc2)C1` (stereo not drawn) belongs 106 to 110 °C.
The compound `NNc1ccc(C(=O)O)cn1` came in with a melting point of 292 to 293 °C.
`CC(C)NC(=NC(=Nc1ccccc1)N1CCOCC1)C(C)C` yielded a melting point of 132 to 135 °C.
The value for `CNC(=S)Nc1ncc(Cl)cc1Cl` was 105 to 109 °C.
`O=C(O)CCC(=O)c1ccc(N2CCC3(CC2)OCCO3)cc1` returned a melting point of 130 to 131 °C.
Consider `O=C(O)Cc1ccc(OCCNC(=O)C2Cc3ccccc3N2S(=O)(=O)c2ccc(-c3ccc(F)cc3)cc2)c(Cl)c1` (stereo not drawn), for which the melting point lay within 102 to 110 °C.
The value for `COc1ccc(-c2coc3ccc(C(=O)NN)cc23)cc1` was 184 to 185 °C; that for `COc1ccc(C(=O)C2C(Cl)=CC=CC2(C)Cl)c(OC(=O)Cc2ccccc2)c1OC` (stereo not drawn) was 106 °C.
Compound `C[C@H](NN1C(=O)c2ccccc2S1(=O)=O)C(=O)N[C@@H](Cc1ccccc1)C(=O)O` showed a melting point of 190 to 193 °C.
Compound `O=C1Nc2cc(Cl)ccc2Nc2ccsc21` registered a melting point of 255 to 256 °C.
To `CC(N(CC(=O)O)C(=O)c1ccc(C(F)(F)F)cc1)C(O)(Cn1cncn1)c1ccc(C(F)(F)F)cc1` (stereo not drawn) belongs 201 to 204 °C; to `CC(C)C(C#N)c1ccc(O)c(O)c1` (stereo not drawn), 134 to 136 °C; to `Clc1nn2cnnc2c2c1C1CCC2CC1`, 137 to 140 °C.
The compound `CC(C)(Cc1ccc(Cl)cc1)C(O)(Cn1ccnc1)c1ccc(Cl)cc1` (stereo not drawn) came in with a melting point of 174 °C.
In turn, `O=C(NO)[C@H](CNS(=O)(=O)c1ccc(OCc2cc(Cl)cc(Cl)c2)cc1)N1CCCCC1` had a melting point of 130 °C.
Compound `N#Cc1ccc(COc2ccc(-c3ccc(C4Cc5ccccc5C(c5c(O)c6ccccc6oc5=O)C4)cc3)cc2)cc1` (stereo not drawn) came in with a melting point of 127 °C.
Compound `N#CCCCCCCNc1ccc(O)cc1` had a melting point of 75 to 76 °C.
Compound `OCCNc1nc2ccc(Cl)cc2c2nc(-c3ccco3)nn12` yielded a melting point of 214 to 217 °C.
`COC(=O)/C=C/c1ccc2nn(C)c(C)c2c1C(=O)OC` showed a melting point of 133 to 135 °C.
The value for `CN(C)C1CCC(Nc2nc3cc4c(cc3nc2-c2ccccn2)CCC4)CC1` (stereo not drawn) was 158 to 161 °C; that for `O=C(O)c1cc([N+](=O)[O-])ccc1Sc1cccc(Br)c1` was 202 to 206 °C.
Take `COc1ccc(-c2cc(F)c(F)cc2-c2ccc(S(C)(=O)=O)cc2)cc1OC`: the melting point lay in the range of 140 to 141 °C.
Turning to `Cc1cccnc1NC(=O)Nc1cccc2c1C1CC(O)CCN1C2=O` (stereo not drawn), the melting point was 204 to 206 °C.
Compound `O=C1CCC2=C1C(c1ccc3nonc3c1)C1=C(CCC1=O)N2` yielded a melting point of 272 to 273 °C.
`O=C(CCCCCCCCC(=O)OC1CC(c2ccccc2)N(O)C(c2ccccc2)C1)OC1CC(c2ccccc2)N(O)C(c2ccccc2)C1` (stereo not drawn): the melting point lay within 138 to 158 °C.
Compound `O=C(CCCCCCNS(=O)(=O)c1ccc(C(=O)Nc2ccc(Cl)c(-c3ccccn3)c2)c(Cl)c1)NO` had a melting point of 159 °C.
As to `Cc1cccc(C)c1N(C(=O)CCl)C1=CCCCC1`, the melting point turned out to be 78 °C.
In the case of `CC1CN(c2n[nH]c(-c3ccc(Cl)cc3)c2-c2ccncc2)CCN1` (stereo not drawn), the melting point lay within 235 to 237 °C.
For `Fc1ccc2c(C3CCN(C(=S)Nc4ccccc4)CC3)nn(-c3ccccc3)c2c1`, the melting point was in the range of 151 to 153 °C.
On to `Cc1ccc(C=Cc2cccc(C#N)n2)cc1`, for which the melting point fell in the range of 137 to 138 °C.
In turn, `CC1(C)CCC(C)(C)c2cc(-c3nc4ccc(C(=O)O)cc4s3)ccc21` had a melting point of 292 to 293 °C.
In the case of `CC(C)(C)OC(=O)CC(C#N)c1ccc(Cl)c(Cl)c1` (stereo not drawn), the melting point is 67 °C.
The value for `COc1cc(CCCCC2OC(=O)NC2=O)ccc1OCc1coc(/C=C/c2ccccc2)n1` (stereo not drawn) was 171 to 172 °C.
The value for `COc1ccc(SC#N)c([N+](=O)[O-])c1` was 127 to 128 °C.
As for `Cc1ccc(S(=O)(=O)OCC(O)Cc2cccc(C(C)(C)C)c2O)cc1` (stereo not drawn), the melting point is 98 to 101 °C.
For the compound `CC1(C)Oc2c([N+](=O)[O-])ccc(Cl)c2C1Br` (stereo not drawn), the melting point lay in the range of 103 to 104 °C.
Turning to `COc1ccc(S(=O)(=O)N(CCNS(C)(=O)=O)c2ccc(Cl)cc2Cc2c(F)cccc2F)cc1OC`, the melting point is 133 °C.
`NS(=O)(=O)c1cc(C(=O)O)cc(SCc2ccco2)c1Oc1ccccc1`: the melting point is 214 to 216 °C.
As for `Nc1nccc(C=Cc2ccccn2)c1[N+](=O)[O-]`, the melting point fell in the range of 161 to 163 °C.
`CC(C)Oc1ccc(N)c(C(=O)O)c1` yielded a melting point of 120 to 122 °C.
`CC(C)c1c(O)ccc2cnc(Nc3ccccc3)nc12`: the melting point lay in the range of 103 to 104 °C.
`CCn1c(=O)c2[nH]c(/C=C/c3cccc(F)c3)nc2n(CC)c1=O` displayed a melting point of over 270 °C.
As for `BrCCCCCCCCCCCCCCCCCCCCCCCCBr`, the melting point is 105 °C.
The compound `COc1ccc(CCNC(=S)Nc2nc3ccccc3[nH]2)cc1` showed a melting point of 166 to 172 °C.
For the compound `CC(C)NCc1ccc(COc2cccc3c2CN(C2CCC(=O)NC2=O)C3=O)cc1` (stereo not drawn), the melting point lay in the range of 165 to 167 °C.
`CCC(=O)Nc1c(C(=O)c2cc(Cl)ccn2)[nH]c2cc(Cl)ccc12` returned a melting point of 188 to 190 °C.
`C=C(C(=O)O)c1ccc2cc(OC)ccc2c1` yielded a melting point of 175 °C.
To `Cc1cc(F)c(N)cc1O` belongs 147 °C; to `CCCS(=O)(=O)c1sc(C(N)=O)c2c1-c1c(cnn1CC(F)(F)F)CC2`, 141 to 142 °C.
Compound `CSC(=NC(=O)Cc1ccccc1)N(C)N=Cc1ccccc1` displayed a melting point of 147 to 148 °C.
To `CCCCCS(=O)(=O)NC(=O)c1ccc2nc(C)n(Cc3ccc(N(C)C(=O)OCC)cc3Cl)c2n1` belongs 149 to 150 °C.
The value for `CC(C)Cc1ccc(N)cc1C#N` was 68 °C; that for `CCOC(=O)c1cnc(-c2ccccc2)nc1-c1ccc([N+](=O)[O-])cc1` was 138 to 140 °C.
The compound `O=C(Nc1cccc2[nH]ccc12)c1ccccc1OCCCNC1CCCCC1` yielded a melting point of 148 °C.
`CC(=O)NCC1CN(c2ccc(N3CCC(O)(C(F)(F)F)C(C)C3)c(F)c2)C(=O)O1` (stereo not drawn) registered a melting point of 144 to 146 °C.
Regarding `Cc1nc2ccc(C(=O)O)[nH]c-2c1Cc1ccc(Cl)cc1Cl`, the melting point was 235 to 236 °C.
`c1ccc2[nH]c(SSCCSSc3nc4ccccc4[nH]3)nc2c1` gave a melting point of 190 to 192 °C.
On to `CCc1cn(C2CC(O)C(CCCO)O2)c(=O)[nH]c1=O` (stereo not drawn), for which the melting point fell in the range of 113 to 115 °C.
Compound `CS(=O)(=O)c1ccc(-c2cnn(-c3ccc(F)c(Cl)c3)c(=O)c2Cc2ccc(F)cc2)cc1` had a melting point of 153 to 156 °C.
